The values below are quoted from earlier work in US8097644B2, “Indole compounds having sphingosine-1-phosphate (S1P) receptor antagonist” (Allergan, Inc., priority 2006, dated 2012).

Molecules are shown by their SMILES.

Data set [1] has as its system cardiac G protein-gated potassium channel IKACh. The note with it: whole-cell recordings.
The subject of the next data set is perfused porcine eyes. Conditions: perfused porcine eyes (IOVS 45, 2263; 2004).

For `CCCCCCCCc1ccc(CC[C@](N)(CO)COP(=O)(O)O)cc1` [FTY720-P], the “myocytes responding to acetylcholine in which an inwardly rectifying potassium current was evoked” value in data set [1] is around 90%.

Regarding `CCCCCCCCCCCCC/C=C/[C@@H](O)[C@@H](N)COP(=O)(O)O` [Example S1P, Sphingosine-1-Phosphate], the “decrease of outflow facility” value in the data set with perfused porcine eyes is listed as above 30%.
